IC50 and CC50 data for five compounds are collected here from ChEMBL document CHEMBL1250548, “Synthesis and anti-HIV-1 evaluation of phosphonates which mimic the 5'-monophosphate of 4'-branched 2',3'-didehydro-2',3'-dideoxy nucleosides” (Bioorg Med Chem, 2010).

A value given as a limit tells only on which side of the number the result lay.

Data set [1] concerns Human immunodeficiency virus 1. Put plainly: Antiviral activity against HIV1 infected in human MT4 cells assessed as protection against virus-induced cytopathic effect. Type of data set: functional, organism-based. The conditions noted are these: Human immunodeficiency virus 1, MT4. In general terms: Protection from cytopathic effect is a common read-out in antiviral testing.

A short description of data set [2]: Cytotoxicity against human MT4 cells assessed as reduction of cell viability. The format is cell-based.

The IC50 is the concentration that inhibits the measured activity by half. As a reminder, the CC50 is the concentration that lowers cell viability or growth by half.

Take `Nc1ncnc2c1ncn2[C@H]1C=C[C@@H](OCP(=O)(O)O)O1`: the IC50 in data set [1] amounted to 1.5 µM. In addition, in data set [2], the CC50 was over 600 µM.
For `Cc1cn([C@H]2C=C[C@@H](OCP(=O)(O)O)O2)c(=O)[nH]c1=O`, the IC50 in data set [1] is 12 µM. For the same compound, in data set [2], the CC50 is over 600 µM.
For `Cc1cn([C@H]2C=C[C@@H](CO)O2)c(=O)[nH]c1=O` [STAVUDINE], in that order: 1.2 µM and over 600 µM.
For `C#C[C@@]1(OCP(=O)(O)O)C=C[C@H](n2cnc3c(N)ncnc32)O1`, in that order: 1.69 µM and over 100 µM.
The like results for `C#C[C@@]1(OCP(=O)(O)O)C=C[C@H](n2cc(C)c(=O)[nH]c2=O)O1` were, in that order, over 100 µM and over 100 µM.
